Measurements reported in the NIST ThermoML archive (doi:10.1016/j.jct.2016.09.010).

Assays:
[1] = xn = mol fraction of the nth substance listed; details: 100 kPa, Liquid; for speed of sound: Frequency=2 MHz, Linear variable-path acoustic interferometer; for mass density: Vibrating tube method
[2] = 100 kPa, Liquid; for speed of sound: Frequency=2 MHz, Linear variable-path acoustic interferometer; for mass density: Vibrating tube method

CCOC(=O)C(C)O (stereo not drawn) [DL-ethyl lactate] + CCNc1ccccc1
[1], x1 = 1
Details | mass density [kg/m3] | speed of sound [m/s]
303.15 K | 1022.88 | 1261.1
308.15 K | 1017.39 | 1243.8
313.15 K | 1011.83 | 1224.8
318.15 K | 1006.31 | 1206.9

CCOC(=O)C(C)O (stereo not drawn) [DL-ethyl lactate] + CNc1ccccc1
[1], x1 = 1
Details | mass density [kg/m3] | speed of sound [m/s]
303.15 K | 1022.88 | 1261.1
308.15 K | 1017.39 | 1243.8
313.15 K | 1011.83 | 1224.8
318.15 K | 1006.31 | 1206.9

CNc1ccccc1 [N-methylaniline]
[2]
Details | mass density [kg/m3] | speed of sound [m/s]
303.15 K | 978.2 | 1547
308.15 K | 973.53 | 1526.9
313.15 K | 969.92 | 1511
318.15 K | 964.9 | 1491.4

CCNc1ccccc1 [N-ethylaminobenzene]
[2]
Details | mass density [kg/m3] | speed of sound [m/s]
303.15 K | 952.41 | 1497
308.15 K | 947.69 | 1481
313.15 K | 942.95 | 1464
318.15 K | 938.23 | 1448

Nc1ccccc1 [aniline]
[2]
Details | mass density [kg/m3] | speed of sound [m/s]
303.15 K | 1012.81 | 1614
308.15 K | 1008.91 | 1595
313.15 K | 1004.59 | 1574.4
318.15 K | 1000.21 | 1554.9

Nc1ccccc1 [aniline] + CCOC(=O)C(C)O
[1], x2 = 0
Details | mass density [kg/m3] | speed of sound [m/s]
303.15 K | 1012.81 | 1614
308.15 K | 1008.91 | 1595
313.15 K | 1004.59 | 1574.4
318.15 K | 1000.21 | 1554.9
